Earlier results in paper PMC6627067, “Probing Multi-Target Action of Phlorotannins as New Monoamine Oxidase Inhibitors and Dopaminergic Receptor Modulators with the Potential for Treatment of Neuronal Disorders” (Marine Drugs, 2019).

Columns and labels:
[1] = target: T1, hMAO-A (Homo sapiens, UniProt P21397); set-up: method as in PMID 28251489; conditions: cited from earlier work
T1 sequence (P21397 1-527): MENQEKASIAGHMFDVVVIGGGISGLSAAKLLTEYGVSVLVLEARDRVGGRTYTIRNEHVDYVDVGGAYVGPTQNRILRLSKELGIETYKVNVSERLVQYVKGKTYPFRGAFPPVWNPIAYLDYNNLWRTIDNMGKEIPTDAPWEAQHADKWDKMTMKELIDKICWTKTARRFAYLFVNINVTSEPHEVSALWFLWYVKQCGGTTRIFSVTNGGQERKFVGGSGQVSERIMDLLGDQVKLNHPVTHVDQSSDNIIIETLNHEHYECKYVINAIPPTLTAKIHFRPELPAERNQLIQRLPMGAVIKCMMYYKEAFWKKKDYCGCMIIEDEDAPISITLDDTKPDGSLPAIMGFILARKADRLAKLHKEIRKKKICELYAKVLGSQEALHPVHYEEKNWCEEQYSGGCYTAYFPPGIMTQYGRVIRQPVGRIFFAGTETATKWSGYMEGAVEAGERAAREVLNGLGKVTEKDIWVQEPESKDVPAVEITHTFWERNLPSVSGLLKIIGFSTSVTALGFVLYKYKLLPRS

[2] = target: T2, hMAO-B (Homo sapiens, UniProt P27338); set-up: method as in PMID 28251489; conditions: cited from earlier work
T2 sequence (P27338 1-520): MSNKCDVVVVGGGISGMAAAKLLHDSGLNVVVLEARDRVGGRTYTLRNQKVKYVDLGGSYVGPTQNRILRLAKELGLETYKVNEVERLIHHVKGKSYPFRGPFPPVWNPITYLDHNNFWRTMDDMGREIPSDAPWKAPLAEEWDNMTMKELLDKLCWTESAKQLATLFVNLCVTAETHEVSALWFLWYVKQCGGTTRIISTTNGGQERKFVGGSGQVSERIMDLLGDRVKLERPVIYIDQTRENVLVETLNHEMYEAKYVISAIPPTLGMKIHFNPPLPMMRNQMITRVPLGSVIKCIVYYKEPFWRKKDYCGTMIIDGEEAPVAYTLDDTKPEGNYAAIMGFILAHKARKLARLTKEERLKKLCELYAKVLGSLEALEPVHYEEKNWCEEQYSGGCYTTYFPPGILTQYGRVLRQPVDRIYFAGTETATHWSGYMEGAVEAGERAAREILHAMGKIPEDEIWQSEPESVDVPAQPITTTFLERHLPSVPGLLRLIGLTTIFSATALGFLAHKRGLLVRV

[3] = target: T3, hM5 (CHRM5) (Homo sapiens, UniProt P08912); conditions: previous GPCR cell-based study; cited from earlier work
T3 sequence (P08912 1-532): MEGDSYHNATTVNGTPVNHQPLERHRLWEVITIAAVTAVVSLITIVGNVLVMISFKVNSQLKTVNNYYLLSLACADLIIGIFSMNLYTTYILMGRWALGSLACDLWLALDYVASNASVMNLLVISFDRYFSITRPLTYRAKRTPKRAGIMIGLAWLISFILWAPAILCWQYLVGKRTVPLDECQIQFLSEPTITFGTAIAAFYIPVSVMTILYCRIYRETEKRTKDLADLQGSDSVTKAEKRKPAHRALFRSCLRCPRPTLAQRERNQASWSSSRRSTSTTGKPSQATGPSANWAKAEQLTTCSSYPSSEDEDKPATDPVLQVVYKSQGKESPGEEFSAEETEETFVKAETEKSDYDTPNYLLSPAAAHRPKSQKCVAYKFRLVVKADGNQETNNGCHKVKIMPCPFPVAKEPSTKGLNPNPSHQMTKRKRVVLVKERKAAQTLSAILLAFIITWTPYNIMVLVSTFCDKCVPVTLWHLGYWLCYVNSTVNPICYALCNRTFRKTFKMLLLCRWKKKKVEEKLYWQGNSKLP

[4] = target: hNK1 (TACR1) (Homo sapiens, UniProt P25103); conditions: previous GPCR cell-based study; cited from earlier work
hNK1 (TACR1), sequence (P25103 whole entry): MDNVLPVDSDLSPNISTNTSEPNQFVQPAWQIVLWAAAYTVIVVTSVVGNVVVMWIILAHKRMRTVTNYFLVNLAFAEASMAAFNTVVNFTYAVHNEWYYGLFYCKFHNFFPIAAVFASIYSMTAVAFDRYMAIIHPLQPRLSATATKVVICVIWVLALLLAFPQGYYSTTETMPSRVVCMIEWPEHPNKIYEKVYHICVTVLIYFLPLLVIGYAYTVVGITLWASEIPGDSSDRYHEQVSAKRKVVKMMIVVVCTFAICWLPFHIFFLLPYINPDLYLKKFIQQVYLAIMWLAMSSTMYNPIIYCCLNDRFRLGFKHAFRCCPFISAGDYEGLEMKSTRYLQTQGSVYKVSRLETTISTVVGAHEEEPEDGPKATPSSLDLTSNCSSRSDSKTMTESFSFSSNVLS

[5] = target: T4, h5-HT1A (HTR1A) (Homo sapiens, UniProt P08908); conditions: previous GPCR cell-based study; cited from earlier work
T4 sequence (P08908 1-422): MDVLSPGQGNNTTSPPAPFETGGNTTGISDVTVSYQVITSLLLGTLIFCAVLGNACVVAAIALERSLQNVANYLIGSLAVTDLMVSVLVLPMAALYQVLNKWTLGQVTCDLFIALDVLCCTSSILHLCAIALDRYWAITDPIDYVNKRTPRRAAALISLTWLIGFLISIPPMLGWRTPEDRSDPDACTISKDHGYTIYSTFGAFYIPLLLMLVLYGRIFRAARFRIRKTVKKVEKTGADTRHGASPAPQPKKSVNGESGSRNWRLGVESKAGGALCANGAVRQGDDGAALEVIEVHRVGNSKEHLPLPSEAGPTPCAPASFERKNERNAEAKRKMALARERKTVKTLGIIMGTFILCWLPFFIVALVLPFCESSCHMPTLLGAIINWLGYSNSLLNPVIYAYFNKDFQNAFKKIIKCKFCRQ

[6] = target: hV1A (AVPR1A) (Homo sapiens, UniProt P37288); conditions: previous GPCR cell-based study; cited from earlier work
hV1A (AVPR1A), sequence (P37288 whole entry): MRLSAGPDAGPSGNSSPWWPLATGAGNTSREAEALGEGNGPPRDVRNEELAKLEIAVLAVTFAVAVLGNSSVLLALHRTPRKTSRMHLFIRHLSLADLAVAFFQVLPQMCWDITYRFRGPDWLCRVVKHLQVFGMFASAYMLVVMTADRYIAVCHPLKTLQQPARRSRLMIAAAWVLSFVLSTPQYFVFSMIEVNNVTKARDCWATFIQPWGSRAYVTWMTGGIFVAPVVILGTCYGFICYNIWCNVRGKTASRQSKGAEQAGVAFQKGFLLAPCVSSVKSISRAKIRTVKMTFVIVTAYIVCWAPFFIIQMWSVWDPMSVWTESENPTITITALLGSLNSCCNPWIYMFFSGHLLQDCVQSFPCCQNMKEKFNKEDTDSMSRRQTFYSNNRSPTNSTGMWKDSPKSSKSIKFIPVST

[7] = target: hD1 (DRD1) (Homo sapiens, UniProt P21728); set-up: host or cells: CHO cells; conditions: previous GPCR cell-based study; cited from earlier work
hD1 (DRD1), sequence (P21728 whole entry): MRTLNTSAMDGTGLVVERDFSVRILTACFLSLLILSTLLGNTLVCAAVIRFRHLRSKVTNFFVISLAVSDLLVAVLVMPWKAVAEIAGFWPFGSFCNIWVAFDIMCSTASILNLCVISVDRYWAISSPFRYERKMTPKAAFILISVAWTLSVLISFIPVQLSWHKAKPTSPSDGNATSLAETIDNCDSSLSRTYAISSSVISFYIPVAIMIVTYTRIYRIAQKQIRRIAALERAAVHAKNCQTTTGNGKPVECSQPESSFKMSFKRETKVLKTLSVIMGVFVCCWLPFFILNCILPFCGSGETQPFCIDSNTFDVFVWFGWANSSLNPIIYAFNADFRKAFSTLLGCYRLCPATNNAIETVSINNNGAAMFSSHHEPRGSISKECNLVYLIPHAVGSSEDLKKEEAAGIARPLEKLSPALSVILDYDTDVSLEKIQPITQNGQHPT

[8] = target: hD3 (DRD3) (Homo sapiens, UniProt P35462); set-up: host or cells: CHO cells; conditions: previous GPCR cell-based study; cited from earlier work
hD3 (DRD3), sequence (P35462 whole entry): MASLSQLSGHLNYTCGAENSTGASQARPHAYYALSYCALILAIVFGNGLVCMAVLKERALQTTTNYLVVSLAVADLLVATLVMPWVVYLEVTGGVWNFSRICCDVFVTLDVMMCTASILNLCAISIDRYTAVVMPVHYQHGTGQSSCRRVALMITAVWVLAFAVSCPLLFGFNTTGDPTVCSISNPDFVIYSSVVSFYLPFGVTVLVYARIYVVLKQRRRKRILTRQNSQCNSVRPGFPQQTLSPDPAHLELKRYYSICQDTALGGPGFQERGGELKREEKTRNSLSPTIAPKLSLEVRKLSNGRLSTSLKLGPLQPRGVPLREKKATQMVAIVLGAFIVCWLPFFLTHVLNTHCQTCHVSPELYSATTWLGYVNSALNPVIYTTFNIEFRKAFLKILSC

[9] = target: T5, hD4 (DRD4) (Homo sapiens, UniProt P21917); set-up: host or cells: CHO cells; conditions: previous GPCR cell-based study; cited from earlier work
T5 sequence (P21917 1-419): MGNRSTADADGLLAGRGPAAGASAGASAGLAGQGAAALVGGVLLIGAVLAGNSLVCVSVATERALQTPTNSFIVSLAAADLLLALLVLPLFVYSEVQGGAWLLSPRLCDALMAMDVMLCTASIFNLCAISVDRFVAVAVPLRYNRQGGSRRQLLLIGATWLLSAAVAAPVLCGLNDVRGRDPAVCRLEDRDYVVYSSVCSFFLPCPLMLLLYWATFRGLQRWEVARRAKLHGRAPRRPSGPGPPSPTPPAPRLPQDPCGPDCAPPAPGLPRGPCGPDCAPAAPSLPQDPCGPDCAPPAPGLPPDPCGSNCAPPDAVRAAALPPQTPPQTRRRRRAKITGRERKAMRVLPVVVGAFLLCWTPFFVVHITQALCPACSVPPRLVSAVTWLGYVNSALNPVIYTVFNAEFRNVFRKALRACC

Compound: Oc1cc(O)cc(Oc2c(O)cc(O)c3c2Oc2c(O)cc(O)cc2O3)c1 [Eckol, eckol]
- Inhibition type hMAO-A ([1]; NC = noncompetitive, Mixed = mixed type): Mixed
- Ki [1]: 20.3 µM
- SI (selective index) ([1]; ratio of hMAO-A IC50/hMAO-B IC50): 0.09
- IC50 ([1]; recombinant hMAO-A, obtained from the literature): 7.2 ± 0.71 µM
- Ki [2]: 163 µM
- IC50 ([2]; recombinant hMAO-B, obtained from the literature): 83.4 ± 1.48 µM
- Effect on M5 receptor [3]: null effects
- Effect on NK1 receptor [4]: null effects
- Effect on 5HT1A receptor [5]: null effects
- Effect on V1A receptor [6]: null effects
- Effect on D1R [7]: null effects
- Effect on hD3R [8]: agonist
- Effect on hD4R [9]: agonist
